From patent publication US7011814B2, “Systems, methods and devices for in vivo monitoring of a localized response via a radiolabeled analyte in a subject” (Sicel Technologies, Inc., priority 2001, dated 2006)

Assays:
[1] = cited from earlier work
[2] = in vivo monitoring of radiolabeled analyte uptake in tissue with subcutaneous fiber optic beta radiation probes
Experimental: The labeled glucose can be injected into the tail vein of test animals (such as rats) in a single bolus.
FIG. 11A illustrates a response profile graph (an integrated counts (above threshold) over time profile) taken over a monitored time period of about 85 minutes (study #2). The counts were taken on a thirty seconds/sample count time frame. In this experiment, a fiber optic probe was positioned subcutaneously in “normal” or non-cancerous tissue in the back of a Fisher 344 rat. A dose of 50 μCi of ^14C-2DG was injected in the tail vein. The data was monitored for about 85 minutes. […] The initial portion of the graph has values that represent “baseline” or dark current.
FIGS. 11B-11C illustrate graphs of data obtained using two probes, each placed subcutaneously in normal tissue of a 190 gram female Fisher 344 rat, one placed in the flank/inguinal and the other in the scapula (study #4). […] In this experiment, a bolus of 200 μCi of ^14C 2-DG was administered via intra-peritoneal (IP) injection. The data was monitored for about 96 minutes.

For `O=c1[nH]cc([18F])c(=O)[nH]1` [5-[F-18]FU], the “liver parenchyma uptake at the end of the acquisition time, relative to the maximum” value ([1]; PET, 120-minute acquisition time) is listed as 25%, the “uptake in the metastases” value ([1]; PET, during the 120-minute acquisition time) is listed as “low and relatively constant” and the “mean uptake in metastases relative to liver uptake at the same time interval” value ([1]; PET, liver metastases) is listed as “one-third”. The “time of highest uptake in normal liver parenchyma after onset of the infusion of the tracer” value ([1]; PET, normal liver parenchyma) was “about 30 minutes”.
In the case of `O=c1[nH]cc(F)c(=O)[nH]1` [5-FU, 5-Fluorouracil], the “lesions in which enhanced trapping was noted” value ([1]; PET with O-15 labeled water and 5-[F-18]FU) is given as 70%.
With C-14 labeled 2-deoxyglucose [^14C-2DG] the “time from injection at which counts reached a plateau” value ([2]; 50 μCi injected in tail vein, probe subcutaneous in normal tissue in back of Fisher 344 rat, study #2, FIG. 11A) was “about 10 minutes”, the “concentration in scapula region compared to flank region” value ([2]; 200 μCi bolus intra-peritoneal, two probes subcutaneous in normal tissue, 190 gram female Fisher 344 rat, monitored about 96 minutes, study #4, FIG. 11B) was “higher concentrations were obtained in the scapula region compared to the flank region” and the “time range in which peak or maxima point of concentration is reached (observed points)” value ([2]; 200 μCi intra-peritoneal, flank/inguinal normal tissue probe, study #4, FIG. 11C) was 20 to 50 min.
